Results taken from patent publication US20260306476A1, “ANTIBACTERIAL COMPOUND PBT2” (priority 2022, published 2026).
Read-outs that look alike come from different tables or passages of the source.

Experiments:
[1] = system: vancomycin-resistant Enterococcus (VRE); conditions: in the absence of an antibiotic; cited from earlier work
[2] = system: Helicobacter pylori; test: Sensitivity across Helicobacter pylori strains; assay type: cell-based; conditions: strains tested
Procedure: The MIC of PBT2 against four Helicobacter pylori 26695 strains was determined. The strains tested were sensitive to PBT2.

[3] = system: non-typeable Haemophilus influenzae (NTHi) 723; test: MIC of PBT2 alone (broth); assay type: cell-based
Procedure: (§1) The MIC of PBT2 against five non-typeable Haemophilus influenzae (NTHi) strains was determined (CLSI. 2022. Performance Standards for Antimicrobial Susceptibility Testing, 32nd Edition. Clinical and Laboratory Standards Institute).

[4] = system: non-typeable Haemophilus influenzae (NTHi) 86-028NP; test: MIC of PBT2 alone (broth); assay type: cell-based
Procedure: as §1

[5] = system: non-typeable Haemophilus influenzae (NTHi) 2019; test: MIC of PBT2 alone (broth); assay type: cell-based
Procedure: as §1

[6] = system: non-typeable Haemophilus influenzae (NTHi) R2866; test: MIC of PBT2 alone (broth); assay type: cell-based
Procedure: as §1

[7] = system: non-typeable Haemophilus influenzae (NTHi) ATCC49766; test: MIC of PBT2 alone (broth); assay type: cell-based
Procedure: as §1

[8] = system: Neisseria meningitidis MC58 (B); test: MIC of PBT2 (broth and agar)
[9] = system: Helicobacter pylori ATCC 43504; test: MIC of PBT2 alone (agar); assay type: cell-based; conditions: ATCC43504
[10] = system: MDR Neisseria gonorrhoeae; test: RNA-seq expression profile analysis after PBT2 treatment; assay type: cell-based; conditions: for fold change in gene expression (up- or down-regulated) at 0.156 µg/mL / fold induction at 0.156 µg/mL: Neisseria gonorrhoeae
Procedure: Expression profile analysis using RNA-seq was performed to investigate the mode of action of PBT2 in killing Neisseria gonorrhoeae.

[11] = sub-MIC PBT2 0.156 mg/L, cut-off >=2-fold, P<0.05
[12] = up-regulated gene WHOZ_00323 (ABC transporter periplasmic binding protein, iron related)
[13] = up-regulated gene WHOZ_00324 (iron(III) ABC transporter permease)

CN(C)Cc1ccc2c(Cl)cc(Cl)c(O)c2n1 [PBT2, 5,7-dichloro-2-[(dimethylamino)methyl]quinolin-8-ol]
antibacterial activity [1]: neither PBT2 nor zinc alone displayed antibacterial activity which would be suitable to treat an infection | sensitivity [2]: sensitive | MIC [3]: 1.25 µg/mL | MIC [4]: 2.5 µg/mL | MIC [5]: 2.5 µg/mL | MIC [6]: 2.5 µg/mL | MIC [7]: 0.312 µg/mL | MIC ([8]; agar): 0.039 µg/mL | MIC ([8]; broth): 0.156 µg/mL | MIC [9]: 2.5 µg/mL | fold change in gene expression (up- or down-regulated) at 0.156 µg/mL ([10]; read-out: Fold Change, down-regulated gene WHOZ_00293 (Periplasmic protein)): 3.56 | fold change in gene expression (up- or down-regulated) at 0.156 µg/mL ([10]; read-out: Fold Change, down-regulated gene WHOZ_00873 (outer membrane protein)): 3.36 | fold change in gene expression (up- or down-regulated) at 0.156 µg/mL ([10]; read-out: Fold Change, down-regulated gene WHOZ_00996 (Na(+)-translocating NADH-quinone reductase subunit D)): 3.25 | fold change in gene expression (up- or down-regulated) at 0.156 µg/mL ([10]; read-out: Fold Change, down-regulated gene WHOZ_00998 (Na(+)-translocating NADH-quinone reductase subunit B)): 3.3 | fold change in gene expression (up- or down-regulated) at 0.156 µg/mL ([10]; read-out: Fold Change, down-regulated gene WHOZ_01539 (NADH dehydrogenase subunit C)): 3.32 | fold change in gene expression (up- or down-regulated) at 0.156 µg/mL ([10]; read-out: Fold Change, down-regulated gene WHOZ_01541 (NADH dehydrogenase subunit E)): 3.77 | fold change in gene expression (up- or down-regulated) at 0.156 µg/mL ([10]; read-out: Fold Change, down-regulated gene WHOZ_01542 (NADH-quinone oxidoreductase, F subunit)): 3.57 | fold change in gene expression (up- or down-regulated) at 0.156 µg/mL ([10]; read-out: Fold Change, down-regulated gene WHOZ_01545 (NADH-quinone oxidoreductase subunit H)): 3.58 | fold change in gene expression (up- or down-regulated) at 0.156 µg/mL ([10]; read-out: Fold Change, down-regulated gene WHOZ_01546 (NADH dehydrogenase subunit I)): 4.11 | fold change in gene expression (up- or down-regulated) at 0.156 µg/mL ([10]; read-out: Fold Change, down-regulated gene WHOZ_01547 (NADH dehydrogenase subunit J)): 3.8 | fold change in gene expression (up- or down-regulated) at 0.156 µg/mL ([10]; read-out: Fold Change, down-regulated gene WHOZ_01548 (NADH dehydrogenase subunit K)): 4 | fold change in gene expression (up- or down-regulated) at 0.156 µg/mL ([10]; read-out: Fold Change, down-regulated gene WHOZ_01549 (NADH:ubiquinone dehydrogenase, L subunit)): 3.95 | fold change in gene expression (up- or down-regulated) at 0.156 µg/mL ([10]; read-out: Fold Change, down-regulated gene WHOZ_01550 (Predicted HKD family nuclease)): 3.73 | fold change in gene expression (up- or down-regulated) at 0.156 µg/mL ([10]; read-out: Fold Change, down-regulated gene WHOZ_01551 (NADH dehydrogenase subunit M)): 3.68 | fold change in gene expression (up- or down-regulated) at 0.156 µg/mL ([10]; read-out: Fold Change, down-regulated gene WHOZ_01552 (NADH dehydrogenase subunit N)): 3.41 | fold change in gene expression (up- or down-regulated) at 0.156 µg/mL ([10]; read-out: Fold Change, down-regulated gene bfr (bacterioferritin), first entry): 8.2 | fold change in gene expression (up- or down-regulated) at 0.156 µg/mL ([10]; read-out: Fold Change, down-regulated gene bfr (bacterioferritin), second entry): 7.73 | fold change in gene expression (up- or down-regulated) at 0.156 µg/mL ([10]; read-out: Fold Change, down-regulated gene cysK (Cysteine synthetase)): 3.38 | fold change in gene expression (up- or down-regulated) at 0.156 µg/mL ([10]; read-out: Fold Change, down-regulated gene nqrE): 3.48 | fold change in gene expression (up- or down-regulated) at 0.156 µg/mL ([10]; read-out: Fold Change, down-regulated gene nqrF): 3.47 | fold induction at 0.156 µg/mL ([10]; read-out: Fold Change, up-regulated gene WHOZ_00302 (MpeR)): 20.2 | fold induction at 0.156 µg/mL ([10]; read-out: Fold Change, up-regulated gene WHOZ_00403 (putative lipoprotein)): 19.1 | fold induction at 0.156 µg/mL ([10]; read-out: Fold Change, up-regulated gene WHOZ_00412 (putative ferredoxin)): 4.43 | fold induction at 0.156 µg/mL ([10]; read-out: Fold Change, up-regulated gene WHOZ_00413 (Thioredoxin)): 7.01 | fold induction at 0.156 µg/mL ([10]; read-out: Fold Change, up-regulated gene WHOZ_00880 (integral membrane protein)): 3.91 | fold induction at 0.156 µg/mL ([10]; read-out: Fold Change, up-regulated gene WHOZ_01151 (TonB-dependent receptor plug domain-containing protein)): 4.75 | fold induction at 0.156 µg/mL ([10]; read-out: Fold Change, up-regulated gene WHOZ_01152 (hemoglobin receptor)): 5.13 | fold induction at 0.156 µg/mL ([10]; read-out: Fold Change, up-regulated gene WHOZ_01153 (hemoglobin receptor)): 3.89 | fold induction at 0.156 µg/mL ([10]; read-out: Fold Change, up-regulated gene WHOZ_01683 (fetA)): 4.53 | fold induction at 0.156 µg/mL ([10]; read-out: Fold Change, up-regulated gene WHOZ_01837 (outer membrane protein)): 3.91 | fold induction at 0.156 µg/mL ([10]; read-out: Fold Change, up-regulated gene WHOZ_01985 (hypothetical periplasmic protein)): 5.49 | fold induction at 0.156 µg/mL ([10]; read-out: Fold Change, up-regulated gene WHOZ_02005 (transferrin-binding protein-like)): 10.1 | fold induction at 0.156 µg/mL ([10]; read-out: Fold Change, up-regulated gene WHOZ_02042 (TonB)): 11.9 | fold induction at 0.156 µg/mL ([10]; read-out: Fold Change, up-regulated gene WHOZ_02043 (ExbB)): 10.5 | fold induction at 0.156 µg/mL ([10]; read-out: Fold Change, up-regulated gene WHOZ_02044 (ExbD protein)): 12.5 | fold induction at 0.156 µg/mL ([10]; read-out: Fold Change, up-regulated gene WP_003690577.1 (hypothetical protein)): 4.61 | fold induction at 0.156 µg/mL ([10]; read-out: Fold Change, up-regulated gene WP_003690710.1 (hypothetical protein)): 8.64 | fold induction at 0.156 µg/mL ([10]; read-out: Fold Change, up-regulated gene fumC (Fumarase C)): 12.2 | fold induction at 0.156 µg/mL ([10]; sub-MIC PBT2 0.156 mg/L, read-out: up-regulation of mpeR): 20 | fold induction at 0.156 µg/mL ([10]; sub-MIC PBT2 0.156 mg/L, read-out: up-regulation of seven genes): > 10 | LogFC ([10]; down-regulated gene WHOZ_00293 (Periplasmic protein)): 1.83 | LogFC ([10]; down-regulated gene WHOZ_00873 (outer membrane protein)): 1.75 | LogFC ([10]; down-regulated gene WHOZ_00996 (Na(+)-translocating NADH-quinone reductase subunit D)): 1.70 | LogFC ([10]; down-regulated gene WHOZ_00998 (Na(+)-translocating NADH-quinone reductase subunit B)): 1.72 | LogFC ([10]; down-regulated gene WHOZ_01539 (NADH dehydrogenase subunit C)): 1.73 | LogFC ([10]; down-regulated gene WHOZ_01541 (NADH dehydrogenase subunit E)): 1.92 | LogFC ([10]; down-regulated gene WHOZ_01542 (NADH-quinone oxidoreductase, F subunit)): 1.83 | LogFC ([10]; down-regulated gene WHOZ_01545 (NADH-quinone oxidoreductase subunit H)): 1.84 | LogFC ([10]; down-regulated gene WHOZ_01546 (NADH dehydrogenase subunit I)): 2.04 | LogFC ([10]; down-regulated gene WHOZ_01547 (NADH dehydrogenase subunit J)): 1.93 | LogFC ([10]; down-regulated gene WHOZ_01548 (NADH dehydrogenase subunit K)): 2.00 | LogFC ([10]; down-regulated gene WHOZ_01549 (NADH:ubiquinone dehydrogenase, L subunit)): 1.98 | LogFC ([10]; down-regulated gene WHOZ_01550 (Predicted HKD family nuclease)): 1.90 | LogFC ([10]; down-regulated gene WHOZ_01551 (NADH dehydrogenase subunit M)): 1.88 | LogFC ([10]; down-regulated gene WHOZ_01552 (NADH dehydrogenase subunit N)): 1.77 | LogFC ([10]; down-regulated gene bfr (bacterioferritin), first entry): 3.03 | LogFC ([10]; down-regulated gene bfr (bacterioferritin), second entry): 2.95 | LogFC ([10]; down-regulated gene cysK (Cysteine synthetase)): 1.76 | LogFC ([10]; down-regulated gene nqrE): 1.80 | LogFC ([10]; down-regulated gene nqrF): 1.80 | regulation of genes encoding NADH-associated proteins ([10]; sub-MIC PBT2 0.156 mg/L, FIG. 3): down-regulated | number of down-regulated genes [10, 11]: 96 genes | number of up-regulated genes [10, 11]: 62 genes | LogFC ([10]; up-regulated gene WHOZ_00302 (MpeR)): 4.33 | Fold Change [10, 12]: 5.44 fold | LogFC [10, 12]: 2.44 | Fold Change [10, 13]: 3.74 fold | LogFC [10, 13]: 1.90 | LogFC ([10]; up-regulated gene WHOZ_00403 (putative lipoprotein)): 4.26 | LogFC ([10]; up-regulated gene WHOZ_00412 (putative ferredoxin)): 2.15 | LogFC ([10]; up-regulated gene WHOZ_00413 (Thioredoxin)): 2.81 | LogFC ([10]; up-regulated gene WHOZ_00880 (integral membrane protein)): 1.97 | LogFC ([10]; up-regulated gene WHOZ_01151 (TonB-dependent receptor plug domain-containing protein)): 2.25 | LogFC ([10]; up-regulated gene WHOZ_01152 (hemoglobin receptor)): 2.36 | LogFC ([10]; up-regulated gene WHOZ_01153 (hemoglobin receptor)): 1.96 | LogFC ([10]; up-regulated gene WHOZ_01683 (fetA)): 2.18 | LogFC ([10]; up-regulated gene WHOZ_01837 (outer membrane protein)): 1.97 | LogFC ([10]; up-regulated gene WHOZ_01985 (hypothetical periplasmic protein)): 2.46 | LogFC ([10]; up-regulated gene WHOZ_02005 (transferrin-binding protein-like)): 3.33 | LogFC ([10]; up-regulated gene WHOZ_02042 (TonB)): 3.58 | LogFC ([10]; up-regulated gene WHOZ_02043 (ExbB)): 3.40 | LogFC ([10]; up-regulated gene WHOZ_02044 (ExbD protein)): 3.64 | LogFC ([10]; up-regulated gene WP_003690577.1 (hypothetical protein)): 2.20 | LogFC ([10]; up-regulated gene WP_003690710.1 (hypothetical protein)): 3.11 | LogFC ([10]; up-regulated gene fumC (Fumarase C)): 3.61
